Assay results reported in patent publication US20140309192A1, “MODULATORS OF THE G PROTEIN-COUPLED MAS RECEPTOR AND THE TREATMENT OF DISORDERS RELATED THERETO” (ARENA PHARMACEUTICALS, INC., priority 2011, published 2014).
Entries after “also recorded” stand apart in the source; their conditions may differ.

Legend:
rat Mas receptor = biological target: T1, rat Mas receptor (Rattus norvegicus, UniProt P12526); assay: HTRF IP1 assay, HEK293 cells expressing rat Mas receptor; assay type: cell-based
T1 construct: expressed in transfected cells; host or cells: HEK293 (ATCC CRL-1573)
T1 sequence (P12526 1-324): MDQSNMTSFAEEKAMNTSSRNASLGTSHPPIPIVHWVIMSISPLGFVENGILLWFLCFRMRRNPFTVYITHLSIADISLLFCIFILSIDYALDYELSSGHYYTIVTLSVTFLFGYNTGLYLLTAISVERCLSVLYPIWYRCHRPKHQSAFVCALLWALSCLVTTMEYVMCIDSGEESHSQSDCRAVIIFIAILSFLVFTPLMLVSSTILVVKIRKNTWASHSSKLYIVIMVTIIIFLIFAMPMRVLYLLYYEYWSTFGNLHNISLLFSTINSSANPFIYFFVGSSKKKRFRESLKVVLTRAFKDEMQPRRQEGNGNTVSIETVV
Description: (§1) Human and rat Mas receptors were either transiently or stably expressed in HEK293 cells. For transient transfections, human or rat Mas in pHM6 vector were transfected into HEK293 cells using Lipofectamine® (Invitrogen #18324-012). HEK293 cells transfected with empty pHM6 vector were used as a control. For generation of stable cell lines, cDNA expression plasmids encoding human or rat Mas genes and the neo^r gene were transfected into HEK293 cells (ATCC# CRL-1573) using Lipofectamine® (Invitrogen) according to the manufacturer's instructions. Stable receptor expressing pools were then generated over 3 weeks by standard techniques in the presence of 500 μg/mL Geneticin® (Gibco). Individual receptor stable pools were dilution cloned using standard techniques and clones were comparatively evaluated in inositol phosphate accumulation assays. Preferred clones were banked and cultured as needed. HEK293 cells were used as controls. The 384 well IP-One HTRF® Assay (Cisbio #62P1APEJ) was performed as described by the manufacturer's protocol. Cells were plated in at 100,000 cells per well in 15 μL DMEM (Gibco #11960) and incubated in a CO2 incubator at 37° C. for 2 h. Five μL of compounds diluted in 2× stimulation buffer plus 0.4% BSA (Sigma (#A3059) were added to each well and serial diluted IP1 standards (Cisbio #62IP1CDA) were also added to corresponding wells at this step. After the cells were incubated for 4 h in a CO2 incubator at 37° C., d2-labeled IP1 and cryptate-labeled anti-IP1 monoclonal antibody diluted in lysis buffer were added sequentially in 10 μL per well and the assay plates were kept in the dark at room temperature overnight. Ratiometric measurements of fluorescence emission at 665 nm and 620 nm were obtained using a Pherastar fluorometer (BMG Labtech). IP1 levels in each well were calculated according to the standard curves on each plate. IC50 values were obtained by fitting data to a nonlinear curve-fitting program (GraphPad Software, Inc., La Jolla Calif.).

human Mas receptor = biological target: T2, human Mas receptor (Homo sapiens, UniProt P04201); assay: HTRF IP1 assay, HEK293 cells expressing human Mas receptor; assay type: cell-based
T2 construct: expressed in transfected cells; host or cells: HEK293 (ATCC CRL-1573)
T2 sequence (P04201 1-325): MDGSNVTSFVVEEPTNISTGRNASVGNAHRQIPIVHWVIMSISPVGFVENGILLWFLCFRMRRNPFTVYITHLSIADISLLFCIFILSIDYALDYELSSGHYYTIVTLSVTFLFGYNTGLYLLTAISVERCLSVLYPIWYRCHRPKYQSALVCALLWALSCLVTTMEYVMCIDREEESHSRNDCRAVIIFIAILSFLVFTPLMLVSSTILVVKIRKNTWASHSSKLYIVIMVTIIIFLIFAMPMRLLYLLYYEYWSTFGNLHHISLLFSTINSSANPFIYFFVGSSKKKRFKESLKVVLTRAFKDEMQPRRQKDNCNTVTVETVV
Description: as §1

control HEK293 cells = assay: HTRF IP1 assay in control HEK293 cells; assay type: cell-based; conditions: IP assay
Description: Human and rat Mas receptors were either transiently or stably expressed in HEK293 cells. For transient transfections, human or rat Mas in pHM6 vector were transfected into HEK293 cells using Lipofectamine® (Invitrogen #18324-012). HEK293 cells transfected with empty pHM6 vector were used as a control. For generation of stable cell lines, cDNA expression plasmids encoding human or rat Mas genes and the neo^r gene were transfected into HEK293 cells (ATCC# CRL-1573) using Lipofectamine® (Invitrogen) according to the manufacturer's instructions. Stable receptor expressing pools were then generated over 3 weeks by standard techniques in the presence of 500 μg/mL Geneticin® (Gibco). Individual receptor stable pools were dilution cloned using standard techniques and clones were comparatively evaluated in inositol phosphate accumulation assays. Preferred clones were banked and cultured as needed. HEK293 cells were used as controls. The 384 well IP-One HTRF® Assay (Cisbio #62P1APEJ) was performed as described by the manufacturer's protocol. Cells were plated in at 100,000 cells per well in 15 μL DMEM (Gibco #11960) and incubated in a CO2 incubator at 37° C. for 2 h. […] IP1 levels in each well were calculated according to the standard curves on each plate. […]

Male Sprague-Dawley rats = assay: Coronary artery ligation model, LV area at risk and infarct size (Example 5.6); assay type: in vivo, rat; conditions: 10 mg/kg i.v. bolus 10 min before ligation or 3 min before reperfusion; 30 min ischemia, 2 h reperfusion
[1] = test system: isolated perfused rat hearts; assay: Global ischemia-reperfusion in Langendorff perfused rat hearts (coronary flow, arrhythmias)
Protocol: For ischemia-reperfusion experiments, Langendorff perfused rat hearts were equilibrated for 20 min and then baseline coronary flow was recorded for 10 min Thereafter, all hearts were subjected to 30 min of global ischemia by stopping perfusate flow, followed by 30 min of reperfusion with either vehicle (0.01% DMSO), Mas agonist AR234960 (1 μM) or Mas inverse agonist AR244555 (5 μM) added to the perfusion buffer. Electrocardiography was also continuously recorded during the observation period through electrodes attached directly to the surface of the ventricles to detect cardiac arrhythmias during reperfusion.

[2] = test system: isolated perfused rat hearts; assay: Ex vivo coronary flow, Langendorff perfused isolated rat hearts
Protocol: Coronary flow was measured in male Mas^−/− and Mas^+/+ mice, and in male Sprague-Dawley rats using Langendorff perfused isolated hearts. Freshly isolated hearts were placed on a Langendorff apparatus (Harvard Apparatus) and perfused at a constant pressure of 80 mmHg with a modified Krebs-Henseleit buffer solution (Sigma K3753) and aerated with 95% oxygen and 5% carbon dioxide, pH 7.35-7.4. The temperature was maintained at 37° C. by surrounding the heart with a water-heated glassware chamber. Coronary flow was measured using a flow measurement system (Harvard Apparatus) which included the transit time flow meter and a flow probe built into an adaptor block located at the perfusate inflow port. Data were recorded continuously using an ISOHEART data acquisition system (Harvard Apparatus). After a 20-min equilibration period, Mas compounds were added to the perfusion buffer reservoir at the desired concentration (agonist AR234960 at 1 μM, or inverse agonist AR244555 at 5 μM) and coronary flow was recorded for 10 min
To determine the role of the Mas-Gq-PLC pathway in regulating coronary flow, the Mas inverse agonist AR244555 (5 μM) or the PLC inhibitor U-73122 (0.5 μM) was added to the perfusion buffer for 10 min and then the agonist AR234960 (1 μM) was added to the perfusion buffer. Coronary flow was recorded for another 10 min Changes in coronary flow induced by AR234960 were calculated as percentage of the coronary flow at 10 min following AR234960 treatment, relative to the coronary flow measured immediately prior to addition of AR234960. This protocol allowed for measurement of agonist mediated vasoconstrictor activity, and accounted for changes in baseline coronary flow due to inverse agonist treatment alone.
To determine whether Mas agonist-induced changes in coronary flow were endothelium-dependent, the responses in Langendorff perfused hearts were measured after chemical removal of endothelium with sodium deoxycholate. After a 20-min equilibration period, sodium deoxycholate was added to the perfusion buffer at 0.2 mg/mL for 3 min and then washed out for 10 min Mas compounds were added and coronary flow was recorded for 10 min Adenosine (1 μM), a coronary vasodilator that targets the endothelium, was used as a control to verify effective removal of endothelium.

Male Sprague Dawley rats = assay: Carrageenan-induced inflammatory paw swelling model; assay type: in vivo, rat; conditions: i.p. 30 minutes prior to λ-carrageenan; AR305352 1, 3 and 10 mg/kg; dexamethasone 2 mg/kg; 1, 2, 3, 6 and 24 hours
Protocol: In a blinded and randomized fashion, rats were intraperitoneally dosed with a Mas receptor inverse agonist (AR305352, N-(4-chloro-2-(4-(3,3,3-trifluoropropyl)piperazin-1-yl)phenyl)-2,6-difluorobenzamide, see Zhang, T., et. al., Am J Physiol Heart Circ Physiol 302:H299-H311, (2012)) at 1, 3 and 10 mg/kg, 20% HPCD or 2 mg/kg of dexamethasone, 30 minutes prior to injection of 100 μl of saline or 100 μg of λ-carrageenan into the left or right foot pad of anesthetized animals. The difference in footpad width was measured using a caliper at 1, 2, 3, 6 and 24 hours post-injection.

Mas receptor = conditions: Dong, et al., Cell 106:619-632 (2001); cited from earlier work

## C=CCCN1CCC2(CC1)CN(C(=O)c1c(F)cccc1F)c1ccc(Cl)cc12 [AR244555, 1′-(but-3-enyl)-1,2-dihydro-5-chloro-1-(2,6-difluoro-benzoyl)-spiro[3H-indole-3,4′-piperidine]]
Rat Mas receptor; IP assay, HEK293 cells stably expressing rat Mas, 4 h, means ± SEM, read-out: Rat IC50
  IC50: 348 ± 67 nM
Rat Mas receptor; Table C, line under Rat IC50
  ligand activity in IP assay, rat Mas: (inverse agonist)
Human Mas receptor; IP assay, HEK293 cells stably expressing human Mas, 4 h, means ± SEM, read-out: Human IC50
  IC50: 186 ± 11 nM
Human Mas receptor; Table C, line under Human IC50
  ligand activity in IP assay, human Mas: (inverse agonist)
Control HEK293 cells
  effects in control HEK293 cells: There were detected effects
Male Sprague-Dawley rats
  infarct size (percentage of the area at risk) vs vehicle: reduced infarct size by about half; also recorded: cardioprotective
[1]; 5 μM, six hearts
  arrhythmias during reperfusion: no arrhythmias were observed
[1]; 30 min global ischemia, 30 min reperfusion, AR234960 1 μM, AR244555 5 μM in perfusate during reperfusion
  coronary flow during reperfusion compared to vehicle treated hearts: significantly elevated coronary flow
[2]; AR234960 1 μM, AR244555 5 μM, 10 min
  coronary flow in isolated perfused rat hearts: modest but significant increase; also recorded: significantly increased
[2]; pretreatment 10 min: AR244555 5 μM or U-73122 0.5 μM
  decrease in coronary flow induced by AR234960 (1 μM) after pretreatment: prevented the decrease

## O=C(Nc1ccc(Cl)cc1N1CCN(CCC(F)(F)F)CC1)c1c(F)cccc1F [AR305352, N-(4-chloro-2-(4-(3,3,3-trifluoropropyl)piperazin-1-yl)phenyl)-2,6-difluorobenzamide]
Male Sprague Dawley rats
  foot-pad inflammation / paw swelling: suppress foot-pad inflammation in a dose-dependent manner

## NPFF
Mas receptor
  EC50: ~400 nM
